Data taken from patent US10023591B2, “Heterocyclic derivatives and use thereof” (C&C RESEARCH LABORATORIES, priority 2014, dated 2018).

Columns and labels:
[1] = system: NCI-N87 stomach cancer cell line; assay: Cell growth inhibition assay, NCI-N87 (CellTiter-Glo); assay type: cell-based; conditions: Homo sapiens; NCI-N87, 5,000 cells/well, 96 hours
Procedure, shortened: (§1)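 Cells seeded at 3,000 (DU-145), 5,000 (NCI-N87) or 10,000 (LNCaP, MDA-MB-468) per well, LNCaP in medium with 10 ng/mL IL-6. Serially diluted compound for 96 h at 37 °C (MDA-MB-468 in air, others 5% CO2); viability by CellTiter-Glo luminescence versus 0.1% DMSO wells.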

[2] = system: MDA-MB-468 breast cancer cell line; assay: Cell growth inhibition assay, MDA-MB-468 (CellTiter-Glo); assay type: cell-based; conditions: Homo sapiens, MDA-MB-468, 96 hours
Method: The inhibitory effects of the compounds of the present invention against the growth of cancer cells were evaluated as shown below. The cancer cell lines including prostate cancer cell lines (LNCaP, DU-145), stomach cancer cell line (NCI-N87), and breast cancer cell lines (MDA-MB-468) were cultured under the protocol provided by each supplier. A medium supplemented with 10 ng/mL of IL-6 was used for LNCaP, a prostate cancer cell line, when treated with a drug. Each type of cells to be used in experiments was sub-cultured in a 96-well plate by counting the exact number of cells using Tali™ Image-based Cytometer (Life Technologies). In a 96-well plate, DU-145 was employed with 3,000 cells/well; NCI-N87 was employed with 5,000 cells/well; and LNCaP and MDA-MB-468 were employed with 10,000 cells/well. The cells were treated with the compounds listed in Examples which were diluted in various concentrations. Upon completion of the compounds treatment, LNCaP, DU-145, NCI-N87 cells were cultured at 37° C. under 5% CO2 for 96 hours, and MDA-MB-468 cells were cultured at 37° C. in air for 96 hours. Subsequently, the cells were observed under microscope and drug precipitation and particular findings were investigated and recorded. And then, the 96-well plate was placed at room temperature for 30 minutes, added with 20 pt/well of CellTiter-Glo solution (Cat No. G7573, Promega) and shaken for 10 minutes, followed by being subjected to the measurement using PHERAstar™ microplate reader (BMG LABTECH) according to the supplier's general luminometer protocol. Wells where only culture liquid added without cell plating were used as a negative control, whereas wells where culture liquid containing 0.1% DMSO instead of the compounds listed in Examples were used as a positive control.

STAT1 = STAT1 reporter gene assay (luciferase), U2OS stable cell line pGL4-STAT1-TA-luc, IFN-γ stimulation; assay type: cell-based, human; conditions: Homo sapiens, IFN-γ 50 ng/mL, 8 hours, read-out: IC50 (μM) pSTAT1
Procedure, shortened: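 U2OS cells stably carrying a STAT1-driven luciferase reporter were treated with serially diluted compounds plus IFN-γ (50 ng/mL final) for 8 h at 37 °C in 10% FBS medium. Luciferase read after lysis; parallel plate assessed for cytotoxicity by CellTiter-Glo.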

STAT3 = STAT3 reporter gene assay (luciferase), LNCaP stable cell line pSTAT3-TA-luc, IL-6 stimulation; assay type: cell-based, human; conditions: Homo sapiens
Procedure, shortened: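 LNCaP cells stably carrying pSTAT3-TA-luc were plated 24 h in 3% DCC-FBS medium, then given compound followed by IL-6 (10 ng/mL final) for 24 h at 37 °C. Luciferase was read from lysates, with CellTiter-Glo viability on a duplicate plate. Stimulated 0.1% DMSO wells served as uninhibited control.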

[3] = system: LNCaP prostate cancer cell line; assay: Cell growth inhibition assay, LNCaP (CellTiter-Glo); assay type: cell-based; conditions: Homo sapiens; LNCaP, 10,000 cells/well, medium with 10 ng/mL IL-6, 96 hours
Procedure, shortened: as §1

[4] = system: DU-145 prostate cancer cell line; assay: Cell growth inhibition assay, DU-145 (CellTiter-Glo); assay type: cell-based; conditions: Homo sapiens; DU-145, 3,000 cells/well, 96 hours
Procedure, shortened: as §1

Row | SMILES | IC50 [1] [µM] | IC50 [2] [µM] | IC50 (STAT1) [µM] | IC50 (STAT3) [µM] | IC50 [3] [µM] | IC50 [4] [µM]
1 | Cc1ccc(Oc2cc(NC(=O)c3cc4cc(C(C)(C)S(C)(=O)=O)ccc4s3)cc(Cl)n2)s1 [Example 120, N-(2-chloro-6-((5-methylthiophen-2-yl)oxy)pyridin-4-yl)-5-(2-(methylsulfonyl)propan-2-yl)benzo[b]thiophene-2-carboxamide] | 0.12 | 0.026 | 39.6 | 0.078 |  | 
2 | CC(C)(c1ccc2sc(C(=O)Nc3cc(Cl)nc(Oc4ccc(F)c(F)c4)c3)cc2c1)S(C)(=O)=O [Example 79, N-(2-chloro-6-(3,4-difluorophenoxy)pyridin-4-yl)-5-(2-(methylsulfonyl)propan-2-yl)benzo[b]thiophene-2-carboxamide] | 0.043 | 0.0074 | > 50 | 0.041 |  | 
3 | CC(C)(c1ccc2sc(C(=O)Nc3cc(Cl)nc(Oc4ccc(Cl)c(Cl)c4)c3)cc2c1)S(C)(=O)=O [Example 82, N-(2-chloro-6-(3,4-dichlorophenoxy)pyridin-4-yl)-5-(2-(methylsulfonyl)propan-2-yl)benzo[b]thiophene-2-carboxamide] | 0.035 | 0.0041 | > 50 | 0.0058 |  | 
4 | Cc1sccc1Oc1cc(NC(=O)c2cc3cc(C(C)(C)S(C)(=O)=O)ccc3s2)cc(Cl)n1 [Example 115, N-(2-chloro-6-((2-methylthiophen-3-yl)oxy)pyridin-4-yl)-5-(2-(methylsulfonyl)propan-2-yl)benzo[b]thiophene-2-carboxamide] | 0.14 | 0.021 | > 50 | 0.019 |  | 
5 | Cc1onc(Oc2cc(NC(=O)c3cc4cc(C(C)(C)S(C)(=O)=O)ccc4s3)cc(Cl)n2)c1C [Example 116, N-(2-chloro-6-((4,5-dimethylisoxazol-3-yl)oxy)pyridin-4-yl)-5-(2-(methylsulfonyl)propan-2-yl)benzo[b]thiophene-2-carboxamide] | 0.91 | 0.062 | > 50 | 0.2 |  | 
6 | CC(C)(c1ccc2sc(C(=O)Nc3cc(Cl)nc(Oc4ccc(Cl)c(F)c4)c3)cc2c1)S(C)(=O)=O [Example 72, N-(2-chloro-6-(4-chloro-3-fluorophenoxy)pyridin-4-yl)-5-(2-(methylsulfonyl)propan-2-yl)benzo[b]thiophene-2-carboxamide] | 0.021 | 0.004 | > 50 | 0.01 |  | 
7 | CC(C)(c1ccc2sc(C(=O)Nc3cc(Cl)nc(Oc4ccc(Cl)cc4)c3)cc2c1)S(C)(=O)=O [Example 64, N-(2-chloro-6-(4-chlorophenoxy)pyridin-4-yl)-5-(2-(methylsulfonyl)propan-2-yl)benzo[b]thiophene-2-carboxamide] | 0.034 | 0.0065 | > 50 | 0.021 | 0.013 | 0.0057
8 | CC(C)(c1ccc2sc(C(=O)Nc3cc(Cl)nc(Oc4cccc(OC(F)(F)F)c4)c3)cc2c1)S(C)(=O)=O [Example 81, N-(2-chloro-6-(3-(trifluoromethoxy)phenoxy)pyridin-4-yl)-5-(2-(methylsulfonyl)propan-2-yl)benzo[b]thiophene-2-carboxamide] | 0.033 | 0.0038 | > 50 | 0.005 |  | 
9 | CC(C)(c1ccc2sc(C(=O)Nc3cc(Cl)nc(Oc4cccc(Cl)c4)c3)cc2c1)S(C)(=O)=O [Example 80, N-(2-chloro-6-(3-chlorophenoxy)pyridin-4-yl)-5-(2-(methylsulfonyl)propan-2-yl)benzo[b]thiophene-2-carboxamide] | 0.069 | 0.0084 | > 50 | 0.04 |  | 
10 | CC(C)(c1ccc2sc(C(=O)Nc3cc(Cl)nc(Oc4ccc(F)c(Cl)c4)c3)cc2c1)S(C)(=O)=O [Example 71, N-(2-chloro-6-(3-chloro-4-fluorophenoxy)pyridin-4-yl)-5-(2-(methylsulfonyl)propan-2-yl)benzo[b]thiophene-2-carboxamide] | 0.02 | 0.0056 | > 50 | 0.011 |  | 
11 | CC(C)(c1ccc2sc(C(=O)Nc3cc(Cl)nc(Oc4ccc(Cl)cc4F)c3)cc2c1)S(C)(=O)=O [Example 83, N-(2-chloro-6-(4-chloro-2-fluorophenoxy)pyridin-4-yl)-5-(2-(methylsulfonyl)propan-2-yl)benzo[b]thiophene-2-carboxamide] | 0.02 | 0.0052 | > 50 | 0.0082 |  | 
